pKi: −log10 of the molar value.
Assays:
[1] = biological target: T1, 5-hydroxytryptamine receptor 1A (Homo sapiens, UniProt P08908); experiment: Radioligand Binding Assay; conditions: 25 °C
T1 sequence (P08908 whole entry): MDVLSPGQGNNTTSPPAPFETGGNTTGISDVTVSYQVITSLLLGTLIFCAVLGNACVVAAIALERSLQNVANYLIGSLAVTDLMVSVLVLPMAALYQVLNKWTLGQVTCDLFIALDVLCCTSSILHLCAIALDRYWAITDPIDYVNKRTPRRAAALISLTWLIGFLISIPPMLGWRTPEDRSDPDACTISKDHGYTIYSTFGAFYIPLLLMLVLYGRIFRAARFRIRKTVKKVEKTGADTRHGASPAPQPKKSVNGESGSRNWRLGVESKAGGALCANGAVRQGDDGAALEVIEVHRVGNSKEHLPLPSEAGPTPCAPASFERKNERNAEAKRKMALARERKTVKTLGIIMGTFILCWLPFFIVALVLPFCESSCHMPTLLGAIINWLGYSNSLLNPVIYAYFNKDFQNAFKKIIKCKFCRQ
Description: All assays were incubated in a total volume of […] in 96-well microtiter plates for 1 h at 37 °C, except for 5-HT1ARs which were incubated at room temperature for 1 h. The process of equilibration was terminated by rapidfiltration through Unifilter plates with a 96-well cell harvester and radioactivity retained on the filters was quantified on a Microbeta plate reader.

[2] = biological target: 5-hydroxytryptamine receptor 7 (Homo sapiens, UniProt P34969); experiment: Radioligand Binding Assay; conditions: 25 °C
Chain of 5-hydroxytryptamine receptor 7 (P34969 whole entry): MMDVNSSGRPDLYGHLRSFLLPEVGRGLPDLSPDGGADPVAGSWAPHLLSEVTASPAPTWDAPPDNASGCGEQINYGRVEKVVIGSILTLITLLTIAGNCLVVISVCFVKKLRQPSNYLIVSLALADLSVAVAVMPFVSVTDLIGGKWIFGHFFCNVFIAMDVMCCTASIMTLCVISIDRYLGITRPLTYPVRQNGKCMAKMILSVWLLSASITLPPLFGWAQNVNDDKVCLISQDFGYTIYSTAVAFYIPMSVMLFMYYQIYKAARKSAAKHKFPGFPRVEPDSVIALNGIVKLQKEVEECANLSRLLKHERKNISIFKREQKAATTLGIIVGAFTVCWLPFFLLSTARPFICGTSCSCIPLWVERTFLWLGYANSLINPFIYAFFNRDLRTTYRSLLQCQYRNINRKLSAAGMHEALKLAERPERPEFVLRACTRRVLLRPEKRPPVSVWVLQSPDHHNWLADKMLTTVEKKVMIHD

## COc1ccccc1N1CCN(CCCCC2NC(C3CCCCC3)=NNC2=O)CC1 (stereo not given) [3-Cyclohexyl-5-{4-[4-(2-methoxyphenyl)piperazin-1-yl]butyl}-4,5-dihydro-1,2,4-triazin-6(1H)-one (18)]
[1]
  pKi: 8.30
[2]
  pKi: 7.70

## COc1ccccc1N1CCN(CCCCC2NC(c3ccccc3)=NNC2=O)CC1 (stereo not given) [5-{4-[4-(2-Methoxyphenyl)piperazin-1-yl]butyl}-3-phenyl-4,5-dihydro-1,2,4-triazin-6(1H)-one (12)]
[1]
  pKi: 8.05
[2]
  pKi: 7.57

## O=C1NN=C(c2ccccc2)NC1CCCCN1CCN(c2cccc(Cl)c2Cl)CC1 (stereo not given) [5-{4-[4-(2,3-Dichlorophenyl)piperazin-1-yl]butyl}-3-phenyl-4,5-dihydro-1,2,4-triazin-6(1H)-one (16)]
[1]
  pKi: 7.15
[2]
  pKi: 7.80

## O=C1NN=C(c2ccccc2Cl)NC1CCCCN1CCN(c2ccccc2F)CC1 (stereo not given) [3-(2-Chlorophenyl)-5-{4-[4-(2-fluorophenyl)piperazin-1-yl]butyl}-4,5-dihydro-1,2,4-triazin-6(1H)-one (17)]
[1]
  pKi: 7.43
[2]
  pKi: 7.04

## CSc1ccccc1N1CCN(CCCCC2NC(c3ccccc3)=NNC2=O)CC1 (stereo not given) [5-{4-[4-(2-(Methylthio)phenyl)piperazin-1-yl]butyl}-3-phenyl-4,5-dihydro-1,2,4-triazin-6(1H)-one (13)]
[1]
  pKi: 7.55
[2]
  pKi: 7.77

## CSc1ccccc1N1CCN(CCCCC2NC(C3CCCCC3)=NNC2=O)CC1 (stereo not given) [3-Cyclohexyl-5-{4-[4-(2-(methylthio)phenyl)piperazin-1-yl]butyl}-4,5-dihydro-1,2,4-triazin-6(1H)-one (19)]
[1]
  pKi: 7.85
[2]
  pKi: 8.22

## O=C1NN=C(c2ccccc2)NC1CCCCN1CCN(c2ccccc2)CC1 (stereo not given) [3-Phenyl-5-[4-(4-phenylpiperazin-1-yl)butyl]-4,5-dihydro-1,2,4-triazin-6(1H)-one (11)]
[1]
  pKi: 7.10
[2]
  pKi: 7.02

## O=C1NN=C(C2CCCCC2)NC1CCCCN1CCN(c2cccc(Cl)c2Cl)CC1 (stereo not given) [3-Cyclohexyl-5-{4-[4-(2,3-dichlorophenyl)piperazin-1-yl]butyl}-4,5-dihydro-1,2,4-triazin-6(1H)-one (20)]
[1]
  pKi: 7.49
[2]
  pKi: 8.30

## O=C1NN=C(c2ccccc2)NC1CCCCN1CCN(c2ccc(Cl)cc2)CC1 (stereo not given) [5-{4-[4-(4-Chlorophenyl)piperazin-1-yl]butyl}-3-phenyl-4,5-dihydro-1,2,4-triazin-6(1H)-one (15)]
[1]
  pKi: 6.16
[2]
  pKi: 7.10

## O=C1NN=C(c2ccccc2)NC1CCCCN1CCN(c2ccccc2F)CC1 (stereo not given) [5-{4-[4-(2-Fluorophenyl)piperazin-1-yl]butyl}-3-phenyl-4,5-dihydro-1,2,4-triazin-6(1H)-one (14)]
[1]
  pKi: 6.92
[2]
  pKi: 7.00

Source: BindingDB's records for doi:10.1111/cbdd.12539 (Jagiellonian University Medical College, 2015)
